EPA's ToxRefDB 2

Experiments:
mouse [1] = conditions: Carcinogenicity, cd1, Oral, [Not Specified], dose end: 79 week, group: systemic
rat [2] = conditions: Combined chronic toxicity/carcinogenicity, sprague dawley, Oral, Feed, dose end: 24 month, group: systemic
dog [3] = conditions: Subchronic oral toxicity in nonrodent, beagle, Feed, dose end: 13 week, group: systemic, systemic / in life observation / body weight / body weight gain + systemic / in life observation / clinical signs / anemia + systemic / in …
dog [4] = conditions: Chronic toxicity, beagle, Oral, Feed, dose end: 52 week, group: systemic
rabbit = conditions: Prenatal developmental toxicity study, new zealand white, Oral, Gavage/Intubation, dose end: 28 GD
rat [5] = conditions: Subchronic oral toxicity in rodents, sprague dawley, Feed, dose end: 90 day, group: systemic, systemic / in life observation / body weight / body weight + systemic / in life observation / body weight / body weight gain
rat [6] = conditions: Multigenerational reproductive toxicity study, sprague dawley, Oral, Feed, dose end: 2 generation
dog [7] = conditions: Subchronic oral toxicity in nonrodent, beagle, Feed, dose end: 90 day, group: systemic
dog [8] = conditions: Subchronic oral toxicity in nonrodent, beagle, Feed, dose end: 13 week, group: systemic
rat [9] = conditions: Subchronic oral toxicity in rodents, sprague dawley, Feed, dose end: 90 day, group: systemic
rat [10] = conditions: Multigenerational reproductive toxicity study, sprague dawley, Oral, Feed, dose end: 2 generation; remark: listed apart in the source
mouse [11] = conditions: Subchronic oral toxicity in rodents, cd1, Feed, dose end: 13 week, group: systemic
rat [12] = conditions: Combined chronic toxicity/carcinogenicity, sprague dawley, Oral, Feed, dose end: 24 month, group: systemic; remark: listed apart in the source
dog [13] = conditions: Subchronic oral toxicity in nonrodent, beagle, Capsule, dose end: 13 week, group: systemic
rat [14] = conditions: Subchronic oral toxicity in rodents, Sprague-Dawley, Feed, dose end: 90 day, group: systemic, systemic / in life observation / body weight / body weight gain
[15] = systemic / in life observation / body weight / body weight + systemic / in life observation / body weight / body weight gain + systemic / …
[16] = systemic / in life observation / body weight / body weight + systemic / in life observation / food consumption / food consumption + systemic…
[17] = systemic / organ weight / liver / relative to body weight + systemic / pathology microscopic / liver / infiltration cellular
[18] = systemic / clinical chemistry / alanine aminotransferase (alt/sgpt) / alanine aminotransferase (alt/sgpt)
[19] = systemic / hematology / anemia / anemia - nos + systemic / hematology / erythrocyte (rbc) count differential / erythrocyte (rbc) + systemic…
[20] = group: developmental, developmental / developmental malformation / bone / ossification sites + developmental / developmental malformation / lung / absent + …
[21] = group: maternal, reproductive / reproductive performance / premature delivery / premature delivery + systemic / in life observation / clinical signs / …
[22] = group: offspring, developmental / developmental landmark / preputial separation / preputial separation + systemic / in life observation / body weight / …
[23] = group: parental, systemic / in life observation / body weight / body weight + systemic / in life observation / body weight / body weight gain + systemic / …
[24] = group: reproductive, reproductive / offspring survival early / dead fetuses / dead fetuses
[25] = systemic / in life observation / body weight / body weight gain + systemic / in life observation / food consumption / food efficiency
[26] = systemic / in life observation / body weight / body weight gain + systemic / in life observation / food consumption / food efficiency + …
[27] = systemic / in life observation / body weight / body weight gain + systemic / in life observation / food consumption / food consumption + …
[28] = systemic / in life observation / food consumption / food consumption + systemic / in life observation / body weight / body weight gain
[29] = systemic / in life observation / body weight / body weight + systemic / in life observation / body weight / body weight gain + systemic / in…
[30] = systemic / organ weight / heart / relative to body weight
[31] = group: offspring, systemic / in life observation / clinical signs / reduced body size
[32] = group: parental, systemic / in life observation / food consumption / food consumption
[33] = group: parental, systemic / in life observation / food consumption / food consumption + systemic / in life observation / body weight / body weight + systemic…
[34] = group: reproductive, reproductive / offspring survival early / litter size / litter size
[35] = systemic / in life observation / body weight / body weight gain + systemic / in life observation / body weight / body weight + systemic / in…
[36] = systemic / clinical chemistry / gamma glutamyl transferase (ggt) / gamma glutamyl transferase (ggt) + systemic / in life observation / …

## CN/C(=N\[N+](=O)[O-])NCc1cnc(Cl)s1 [Clothianidin]
Mouse [1]; systemic / in life observation / body weight / body weight + systemic / in life observation / body weight / body weight gain
  LOAEL: 216 mg/kg/day
Mouse [1]; [15]
  NOAEL: 65.1 mg/kg/day
Mouse [1]; systemic / in life observation / clinical signs / excessive or spontaneous vocalization
  LEL: 171 mg/kg/day
Mouse [1]; systemic / in life observation / clinical signs / excessive or spontaneous vocalization + systemic / in life observation / body weight / …
  NEL: 47.2 mg/kg/day
Rat [2]; [16]
  LOAEL: 97.8 mg/kg/day
  NOAEL: 32.5 mg/kg/day
Rat [2]; [17]
  LEL: 9.7 mg/kg/day
  NEL: < 9.7 mg/kg/day
Dog [3]
  LEL: 40.9 mg/kg/day
  LOAEL: 40.9 mg/kg/day
  NEL: 19.3 mg/kg/day
  NOAEL: 19.3 mg/kg/day
Dog [4]; [18]
  LEL: 36.3 mg/kg/day
  NEL: 16.6 mg/kg/day
Dog [4]; [19]
  LOAEL: 52.9 mg/kg/day
  NOAEL: 40.1 mg/kg/day
rabbit; group: developmental, developmental / developmental malformation / bone / ossification sites + developmental / developmental malformation / lung / absent
  LOAEL: 75 mg/kg/day
rabbit; [20]
  LEL: 75 mg/kg/day
  NEL: 25 mg/kg/day
  NOAEL: 25 mg/kg/day
rabbit; [21]
  LEL: 75 mg/kg/day
  LOAEL: 75 mg/kg/day
  NEL: 25 mg/kg/day
  NOAEL: 25 mg/kg/day
Rat [5]
  LEL: 202 mg/kg/day
  LOAEL: 202 mg/kg/day
  NOAEL: 27.9 mg/kg/day
Rat [6]; [22]
  LEL: 34.3 mg/kg/day
  LOAEL: 34.3 mg/kg/day
  NEL: 10.7 mg/kg/day
  NOAEL: 10.7 mg/kg/day
Rat [6]; [23]
  LEL: 163 mg/kg/day
  LOAEL: 163 mg/kg/day
  NEL: 31.2 mg/kg/day
  NOAEL: 31.2 mg/kg/day
Rat [6]; [24]
  LEL: 31.2 mg/kg/day
  LOAEL: 31.2 mg/kg/day
  NEL: 9.8 mg/kg/day
  NOAEL: 9.8 mg/kg/day

## O=C(Nc1ccccc1)Nc1ccnc(Cl)c1 [Forchlorfenuron]
Dog [7]; [25]
  LOAEL: 173 mg/kg/day
  NOAEL: < 173 mg/kg/day
Dog [7]; [26]
  LEL: 173 mg/kg/day
  NEL: < 173 mg/kg/day
Dog [8]; [27]
  LOAEL: 162 mg/kg/day
  NOAEL: 16.8 mg/kg/day
Dog [8]; [28]
  LEL: 1.8 mg/kg/day
  NEL: < 1.8 mg/kg/day
Rat [9]; [29]
  LOAEL: 428 mg/kg/day
  NOAEL: 84 mg/kg/day
Rat [9]; [30]
  LEL: 16 mg/kg/day
  NEL: < 16 mg/kg/day
Rat [10]; group: offspring, systemic / in life observation / body weight / offspring (pup) weight + developmental / offspring survival late / lactation index / …
  NOAEL: 13 mg/kg/day
Rat [10]; group: offspring, systemic / in life observation / body weight / offspring (pup) weight + systemic / in life observation / clinical signs / reduced body size
  LOAEL: 168 mg/kg/day
Rat [10]; [31]
  LEL: 13 mg/kg/day
  NEL: < 13 mg/kg/day
Rat [10]; [32]
  LEL: 144 mg/kg/day
  LOAEL: 144 mg/kg/day
Rat [10]; [33]
  NEL: 11 mg/kg/day
  NOAEL: 11 mg/kg/day
Rat [10]; [34]
  LEL: 829 mg/kg/day
  LOAEL: 829 mg/kg/day
  NEL: 168 mg/kg/day
  NOAEL: 168 mg/kg/day
Mouse [11]; systemic / in life observation / body weight / body weight gain
  LOAEL: 1290 mg/kg/day
Mouse [11]; [35]
  LEL: 1290 mg/kg/day
  NEL: 609 mg/kg/day
  NOAEL: 609 mg/kg/day
Rat [12]; [15]
  LOAEL: 93 mg/kg/day
  NOAEL: 7 mg/kg/day
Rat [12]; systemic / pathology microscopic / kidney / dilatation + systemic / organ weight / adrenal gland / absolute + systemic / organ weight / …
  NEL: 518 mg/kg/day

## CCc1cccc(C)c1N(C(=O)CS(=O)(=O)O)C(C)COC (configuration not stated) [Metolachlor ESA]
Dog [13]; systemic / clinical chemistry / gamma glutamyl transferase (ggt) / gamma glutamyl transferase (ggt) + systemic / clinical chemistry / …
  LEL: 200 mg/kg/day
Dog [13]; [36]
  LOAEL: > 1000 mg/kg/day
  NOAEL: ≥ 1000 mg/kg/day
Rat [14]
  LEL: 1540 mg/kg/day
  LOAEL: > 1540 mg/kg/day
  NEL: 427 mg/kg/day
  NOAEL: ≥ 1540 mg/kg/day
